The target of the assay is Prothrombin (Homo sapiens, UniProt P00734). Briefly: Inhibition constant against human thrombin.

SMILES strings stand for the structures.

As a reminder, the Ki is the dissociation constant of the complex between target and ligand, obtained from inhibition or displacement. Low values mean higher affinity, high ones lower affinity. Take `CC1CNc2c(cccc2S(=O)(=O)N[C@@H](CCCNC(N)N)C(=O)N2CC[C@@H](C)C[C@@H]2C(=O)O)C1` (stereo partly specified): the affinity corresponds to a Ki of 0.019 µM.
As for `CC1CCN(C(=O)[C@H](CCCNC(N)N)NS(=O)(=O)c2cccc3c2NCC(C)C3)CC1` (stereo partly specified), the figure is 0.03 µM; as for `CC1CNc2c(cccc2S(=O)(=O)N[C@@H](CCCNC(N)N)C(=O)N2CCCCC2)C1` (stereo partly specified), 0.13 µM.
As for `CC1CNc2c(cccc2S(=O)(=O)N[C@@H](CCCNC(N)N)C(=O)N2CC[C@H](C)C[C@@H]2C(=O)O)C1` (stereo in doubt; 1b), the figure is 1.9 µM; as for `CC1CNc2c(cccc2S(=O)(=O)N[C@@H](CCCNC(N)N)C(=O)N2CC[C@H](C)C[C@@H]2C(=O)O)C1` (stereo in doubt; 1c), 280 µM; as for `CC1CNc2c(cccc2S(=O)(=O)N[C@@H](CCCNC(N)N)C(=O)N2CC[C@H](C)C[C@@H]2C(=O)O)C1` (stereo in doubt; 1g), 0.24 µM.
